In US10570108B2, “Substituted benzofuran compounds for the treatment of hepatitis C” (BRISTOL-MYERS SQUIBB COMPANY, priority 2015, dated 2020):

System: HCV replicon
Assay: HCV replicon luciferase assay
Format: cell-based
Conditions: Hepatitis C virus, Huh-7, 72 h
Experimental: Cell lines. The cell lines used to evaluate compounds consist of a human hepatocyte derived cell line (Huh-7) that constitutively expresses a genotype 1b (Con-1) HCV replicon or a genotype 1b (Con-1) HCV replicon with an asparagine replacing the cysteine at amino acid 316, or a genotype 2a (JFH-1) replicon, containing a Renilla luciferase reporter gene. These cells were maintained in Dulbecco's modified Eagle medium (DMEM) containing 10% FBS, 100 U/mL penicillin/streptomycin and 1.0 mg/mL G418.
HCV replicon luciferase assay. To evaluate compound efficacy, titrated compounds were transferred to sterile 384-well tissue culture treated plates, and the plates were seeded with HCV replicon cells (50 μL at a density of 2.4×10^3 cells/well) in DMEM containing 4% FBS (final DMSO concentration at 0.5%). After 3 days incubation at 37° C., cells were analyzed for Renilla Luciferase activity using the EnduRen substrate (Promega cat #E6485) according to the manufacturer's directions. Briefly, the EnduRen substrate was diluted in DMEM and then added to the plates to a final concentration of 7.5 μM. The plates were incubated for at least 1 h at 37° C. then read on a Viewlux Imager (PerkinElmer) using a luminescence program. The 50% effective concentration (EC50) was calculated using the four-parameter logistic formula noted above.

Question: With `CCN(CC)c1cc2oc(-c3ccc(F)cc3)c(C(=O)NC)c2cc1-c1cccc(C(=O)N[C@H](CC(=O)N[C@H](CC(=O)O)CC(C)C)CC(C)C)c1` [Compound 1044] as the molecule, how does the EC50 read?
Answer: 100 to 1000 nM

Question: Which EC50 does the source give for `CCN(CC)c1cc2oc(-c3ccc(F)cc3)c(C(=O)NC)c2cc1-c1cccc(C(=O)N[C@@H]2CCCC[C@H]2C(=O)N[C@@H]2CCCC[C@H]2C(=O)O)c1` [Compound 1045] here?
Answer: > 1000 nM

Question: For `CCN(CC)c1cc2oc(-c3ccc(F)cc3)c(C(=O)NC)c2cc1-c1cccc(C(=O)NC2(CC(=O)O)CCCC2)c1` [Compound 1046], which EC50 is on record?
Answer: 22.2 nM

Question: For `CCN(CC)c1cc2oc(-c3ccc(F)cc3)c(C(=O)NC)c2cc1-c1cccc(C(=O)N[C@H]2CCCC[C@H]2C(=O)O)c1` [Compound 1047], which EC50 is on record?
Answer: < 100 nM

Question: Which EC50 does the source give for `CCN(CC)c1cc2oc(-c3ccc(F)cc3)c(C(=O)NC)c2cc1-c1cccc(C(=O)N[C@@H]2CCCC[C@@H]2C(=O)O)c1` [Compound 2001] here?
Answer: 100 to 1000 nM

Question: For `CCN(CC)c1cc2oc(-c3ccc(F)cc3)c(C(=O)NC)c2cc1-c1cccc(C(=O)NC2(CC(=O)O)CCCCC2)c1` [Compound 2002], which EC50 is on record?
Answer: < 100 nM

Question: Which EC50 does the source give for `CCOP(=O)(O)CCCNC(=O)c1cccc(-c2cc3c(C(=O)NC)c(-c4ccc(F)cc4)oc3cc2N(CC)CC)c1` [Compound 2003] here?
Answer: > 1000 nM

Question: For `CNC(=O)c1c(-c2ccc(F)cc2)oc2cc([N+](=O)[O-])c(-c3cccc(C(=O)NC(CO)(CO)CO)c3)cc12` [Compound 3001], which EC50 is on record?
Answer: 2540 nM

Question: Which EC50 does the source give for `CNC(=O)c1c(-c2ccc(F)cc2)oc2cc([N+](=O)[O-])c(-c3cccc(C(=O)N(Cc4ccc(OC)cc4OC)C(CO)(CO)CO)c3)cc12` [Compound 3002] here?
Answer: > 1000 nM

Question: Which EC50 does the source give for `CNC(=O)c1c(-c2ccc(F)cc2)oc2cc(N)c(-c3cccc(C(=O)NC(CO)(CO)CO)c3)cc12` [Compound 3003] here?
Answer: > 1000 nM

Question: Which EC50 does the source give for `CCNc1cc2oc(-c3ccc(F)cc3)c(C(=O)NC)c2cc1-c1cccc(C(=O)NC(CO)(CO)CO)c1` [Compound 3004] here?
Answer: < 100 nM

Question: For `CCN(CC)c1cc2oc(-c3ccc(F)cc3)c(C(=O)NC)c2cc1-c1cccc(C(=O)NC(CO)(CO)CO)c1` [Compound 3005], which EC50 is on record?
Answer: < 100 nM

Question: Which EC50 does the source give for `CCNc1cc2oc(-c3ccc(F)cc3)c(C(=O)NC)c2cc1-c1cccc(C(=O)NC2CCNC2=O)c1` (stereo not drawn) [Compound 4001] here?
Answer: 58.8 nM

Question: With `CCNc1cc2oc(-c3ccc(F)cc3)c(C(=O)NC)c2cc1-c1cccc(C(=O)NCC(C)(C)C#N)c1` [Compound 4002] as the molecule, how does the EC50 read?
Answer: < 100 nM

Question: Which EC50 does the source give for `C#CC1(NC(=O)c2cccc(-c3cc4c(C(=O)NC)c(-c5ccc(F)cc5)oc4cc3NCC)c2)CCCCC1` [Compound 4003] here?
Answer: < 100 nM

Question: With `CCNc1cc2oc(-c3ccc(F)cc3)c(C(=O)NC)c2cc1-c1cccc(C(=O)NC2(C#N)CCN(Cc3ccccc3)CC2)c1` [Compound 4004] as the molecule, how does the EC50 read?
Answer: < 100 nM

Question: For `C#CC1(NC(=O)c2cccc(-c3cc4c(C(=O)NC)c(-c5ccc(F)cc5)oc4cc3N(CC)S(C)(=O)=O)c2)CCCCC1` [Compound 5001], which EC50 is on record?
Answer: < 100 nM

Question: Which EC50 does the source give for `CCN(c1cc2oc(-c3ccc(F)cc3)c(C(=O)NC)c2cc1-c1cccc(C(=O)NC2(C(F)(F)F)CCCC2)c1)S(C)(=O)=O` [Compound 5002] here?
Answer: 7 nM

Question: For `CCN(c1cc2oc(-c3ccc(F)cc3)c(C(=O)NC)c2cc1-c1cccc(C(=O)N[C@@H]2CCNC2=O)c1)S(C)(=O)=O` [Compound 5003], which EC50 is on record?
Answer: 100 to 1000 nM

Question: Which EC50 does the source give for `CCN(c1cc2oc(-c3ccc(F)cc3)c(C(=O)NC)c2cc1-c1cccc(C(=O)N[C@H]2CCNC2=O)c1)S(C)(=O)=O` [Compound 5004] here?
Answer: 100 to 1000 nM

Question: For `CCN(c1cc2oc(-c3ccc(F)cc3)c(C(=O)NC)c2cc1-c1cccc(C(=O)NC2(C#N)CCN(C(=O)OC(C)(C)C)CC2)c1)S(C)(=O)=O` [Compound 5005], which EC50 is on record?
Answer: < 100 nM

Question: With `CCN(c1cc2oc(-c3ccc(F)cc3)c(C(=O)NC)c2cc1-c1cccc(C(=O)NC2(C#N)CCc3cc(OC)ccc3C2)c1)S(C)(=O)=O` (stereo not drawn) [Compound 5006] as the molecule, how does the EC50 read?
Answer: < 100 nM

Question: Which EC50 does the source give for `CCN(c1cc2oc(-c3ccc(F)cc3)c(C(=O)NC)c2cc1-c1cccc(C(=O)NC2(C#N)CCOCC2)c1)S(C)(=O)=O` [Compound 5007] here?
Answer: 4.2 nM

Question: Which EC50 does the source give for `CNC(=O)c1c(-c2ccc(F)cc2)oc2cc(N(CC3CC3)S(C)(=O)=O)c(-c3cccc(C(=O)NC(C)(C)C=O)c3)cc12` [Compound 6001] here?
Answer: < 100 nM

Question: For `CNC(=O)c1c(-c2ccc(F)cc2)oc2cc(N(CCF)S(C)(=O)=O)c(-c3cccc(C(=O)NCC4CCCC4NC(=O)OC(C)(C)C)c3)cc12` (stereo not drawn) [Compound 7001], which EC50 is on record?
Answer: < 100 nM

System: HCV
Assay: not given
Conditions: extended dosing of the combination regimens; cited from earlier work

Question: For `CNC(=O)c1c(-c2ccc(F)cc2)oc2cc(N(CCO)S(C)(=O)=O)c(C3CC3)cc12` [HCV-796], which hepatic toxicity is on record?
Answer: hepatic toxicity observed

Same assay, conditions: single agent or combined with interferon and ribavirin; cited from earlier work

Question: With `CNC(=O)c1c(-c2ccc(F)cc2)oc2cc(N(CCO)S(C)(=O)=O)c(C3CC3)cc12` [HCV-796] as the molecule, how does the “HCV RNA levels in patients” value read?
Answer: reduce HCV RNA levels
